Consider 2 compounds from ChEMBL document CHEMBL4196217, “Structure-Based Drug Design and Identification of H2O-Soluble and Low Toxic Hexacyclic Camptothecin Derivatives with Improved Efficacy in Cancer and Lethal Inflammation Models in Vivo” (J Med Chem, 2018).

Data set [1] is described as follows: Aqueous solubility of the compound. In kind it is physicochemical. Conditions: aqueous; read-out: solubility.
For data set [2], the system named is Mus musculus. The data set is described as follows: Toxicity in Balb/C mouse administered as daily dose for 1 week measured daily for up to 28 days. Format: organism-based. Conditions: in vivo.
Another data set deals with SMMC-7721. The data set is described as follows: Cytotoxicity in human SMMC7721 cells assessed as reduction in cell viability incubated for 48 hrs by MTT assay. In kind it is functional, cell-based. Particulars: SMMC-7721, 48 h. (Tetrazolium assays rely on reduction of a dye to a coloured formazan, in cell work by metabolically active cells.)
For data set [3], the target named is T1, DNA topoisomerase 1 (Homo sapiens) (UniProt P11387).
T1 sequence (whole entry): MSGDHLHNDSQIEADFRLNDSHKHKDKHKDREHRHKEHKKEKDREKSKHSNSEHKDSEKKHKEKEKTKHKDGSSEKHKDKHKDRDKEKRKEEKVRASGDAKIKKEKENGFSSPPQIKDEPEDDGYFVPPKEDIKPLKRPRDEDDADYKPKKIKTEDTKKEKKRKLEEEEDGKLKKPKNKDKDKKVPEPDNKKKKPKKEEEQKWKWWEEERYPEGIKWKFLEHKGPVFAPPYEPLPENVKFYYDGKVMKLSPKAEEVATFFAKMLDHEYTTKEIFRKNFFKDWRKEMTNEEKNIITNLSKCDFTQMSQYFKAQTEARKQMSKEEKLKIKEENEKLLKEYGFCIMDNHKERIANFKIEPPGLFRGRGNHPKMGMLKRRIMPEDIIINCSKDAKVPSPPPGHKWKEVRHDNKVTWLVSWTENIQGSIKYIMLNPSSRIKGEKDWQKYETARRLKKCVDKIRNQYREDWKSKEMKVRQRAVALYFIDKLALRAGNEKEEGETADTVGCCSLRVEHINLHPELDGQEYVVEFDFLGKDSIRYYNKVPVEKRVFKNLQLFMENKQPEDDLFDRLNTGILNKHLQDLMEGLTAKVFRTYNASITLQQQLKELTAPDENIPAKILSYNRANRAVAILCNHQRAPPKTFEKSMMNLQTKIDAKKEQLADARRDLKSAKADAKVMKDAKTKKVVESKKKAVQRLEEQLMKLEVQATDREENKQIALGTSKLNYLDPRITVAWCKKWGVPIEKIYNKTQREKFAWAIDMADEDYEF
The data set is described as follows: Inhibition of human recombinant topoisomerase-1-mediated DNA cleavage in at 50 uM using supercoiled pHOT-1 DNA incubated for 30 mins by ethidium bromide staining based agarose gel elctrophoresis method.

The next data set relates to Bel-7402. The data set is described as follows: Cytotoxicity in human Bel7402 cells assessed as reduction in cell viability incubated for 48 hrs by MTT assay. Format: functional, cell-based. Conditions: Bel-7402, 48 h.
Data set [4] concerns Mus musculus. The data set is described as follows: Toxicity in human HepG2 cells xenografted Balb/C mouse assessed as reduction in body weight at 2 mg/kg, iv dosed once per week for 30 days followed by 2 weeks observation. In kind it is organism-based. Conditions: in vivo, 336 h. On the technique in general: In xenograft studies the graft and the host belong to different species.

Data set [5] concerns MGC-803. The data set is described as follows: Cytotoxicity in human MGC803 cells assessed as reduction in cell viability incubated for 48 hrs by MTT assay. Conditions: MGC-803, 48 h. Format: functional, cell-based.
The subject of a further data set is SK-N-SH. The data set is described as follows: Cytotoxicity in human SK-N-SH cells assessed as reduction in cell viability incubated for 48 hrs by MTT assay. Format: functional, cell-based.
Data set [6] has as its target T1, DNA topoisomerase 1 (Homo sapiens). The data set is described as follows: Inhibition of human recombinant topoisomerase-1-mediated DNA cleavage in at 100 uM using supercoiled pHOT-1 DNA incubated for 30 mins by ethidium bromide staining based agarose gel elctrophoresis method.
Data set [7] deals with HepG2. The data set is described as follows: Antitumor activity against human HepG2 cells xenografted in Balb/C mouse assessed as inhibition of tumor growth at 2 mg/kg, iv dosed once per week for 30 days followed by 2 weeks observation relative untreated control. Format: functional. Particulars: read-out: TGI.
The test system of data set [8] is HepG2. The data set is described as follows: Antitumor activity against human HepG2 cells xenografted in Balb/C mouse assessed as inhibition of tumor growth at 2 mg/kg, iv dosed once per week for 30 days followed by 2 weeks observation. In kind it is functional, organism-based.
The subject of another data set is MCF7. The data set is described as follows: cells. Particulars: Homo sapiens, MCF7, 48 h.
The test system of the next data set is QGY-7703. The data set is described as follows: Cytotoxicity in human QGY7703 cells assessed as reduction in cell viability incubated for 48 hrs by MTT assay. Format: functional, cell-based. Particulars: QGY-7703, 48 h.
For another data set, the system named is MDA-MB-231. The data set is described as follows: Cytotoxicity in human MDA-MB-231 cells assessed as reduction in cell viability incubated for 48 hrs by MTT assay. In kind it is functional, cell-based. Conditions: MDA-MB-231, 48 h.
A further data set concerns SGC-7901. The data set is described as follows: Cytotoxicity in human SGC7901 cells assessed as reduction in cell viability incubated for 48 hrs by MTT assay. In kind it is functional, cell-based. Conditions: SGC-7901, 48 h.
Data set [9] relates to HepG2. The data set is described as follows: Cytotoxicity in human HepG2 cells assessed as reduction in cell viability incubated for 48 hrs by MTT assay. Format: functional, cell-based. Conditions: HepG2, 48 h.
The subject of the next data set is KB. The data set is described as follows: Cytotoxicity in human KB cells assessed as reduction in cell viability incubated for 48 hrs by MTT assay. Format: functional, cell-based.
In data set [10] the test system is HepG2. The data set is described as follows: Potency index, ratio of IC50 for topotecan to IC50 for test compound for cytotoxicity in human HepG2 cells assessed as reduction in cell viability incubated for 48 hrs by MTT assay. In kind it is functional.
The subject of data set [11] is MGC-803. The data set is described as follows: Potency index, ratio of IC50 for topotecan to IC50 for test compound for cytotoxicity in human MGC803 cells assessed as reduction in cell viability incubated for 48 hrs by MTT assay. Format: functional.
Another data set has as its system A549. The data set is described as follows: cells. Particulars: Homo sapiens, A549, 48 h.

Calls of active or inactive are those of the source. The rule behind the calls is not given here. A value given as a limit tells only on which side of the number the result lay.

Description for A549: Cytotoxicity in human A549 cells assessed as reduction in cell viability incubated for 48 hrs by MTT assay
Description for MCF7: Cytotoxicity in human MCF7 cells assessed as reduction in cell viability incubated for 48 hrs by MTT assay

In the case of `CC[C@@]1(O)C(=O)OCc2c1cc1n(c2=O)Cc2cc3c(CN(C)C)c(O)ccc3nc2-1` [TOPOTECAN], the solubility (in general, the dissolved amount per volume that the medium holds) in data set [1] is less than 1000 µg/mL. The compound further displayed an MTD with Mus musculus [2] of 2 mg/kg. Besides, the IC50 (commonly the concentration needed to halve the response being measured) worked out at 11.6 µM with SMMC-7721; 7.12 µM in the data set on Bel-7402; 0.19 µM with MGC-803 [5]; 0.093 µM in the data set on SK-N-SH; 2.14 µM with MCF7; 11.9 µM in the data set with QGY-7703. In addition, the values for the half-inhibitory concentration (IC50) in the data set on MDA-MB-231, in the data set on SGC-7901 and with HepG2 [9] were 1.9 µM, more than 10 µM and 0.237 µM, respectively. For the same compound, the inhibition entry in [3] and in data set [6] was “Active” throughout. The Activity result in the data set on Mus musculus [4] is recorded as “Toxic”. Besides, the inhibition in vivo at 2 mg/kg with HepG2 [7] was found to be 74%. The TGI result in the data set with HepG2 [8] was “Active”.

Consider `CC[C@@]1(O)C(=O)OCc2c1cc1n(c2=O)Cc2cc3c(ccc4oc(C(C)C)nc43)nc2-1`, for which the IC50 in the data set with KB came out at 2.2 µM; in the data set on SMMC-7721 it was 10.4 µM; in the data set with Bel-7402, 3.48 µM; in the data set with MGC-803 [5], 0.018 µM; with MCF7, 4.64 µM; in the data set with QGY-7703, 11.6 µM. Besides, the half-inhibitory concentration (IC50) was 1.39 µM in the data set on A549, 1.44 µM in the data set on MDA-MB-231, more than 10 µM with SGC-7901 and 0.016 µM in the data set with HepG2 [9]. Besides, the “Ratio IC50” value in the data set on HepG2 [10] and with MGC-803 [11] was 10 each time.
